According to publication PMC4490784, “Compensatory induction of MYC expression by sustained CDK9 inhibition via a BRD4-dependent mechanism” (eLife, 2015):

Experiments:
CDK8-CycC = CDK8-CycC (Homo sapiens, UniProt P49336); assay: AlphaScreen-based kinase assay; assay type: biochemical
[1] = system: MYC protein in HeLa cells; assay: Immunoblotting of MYC protein in HeLa cell lysates; assay type: cell-based, human
Description: Figure 3. Induction of MYC mRNA production in response to sustained inhibition of CDK9 by i-CDK9 and the requirement of MYC's natural genomic structure in this process. (A) The indicated tumor cell lines were treated with i-CDK9 (0.5 μM) for 2–16 hr and the MYC mRNA levels, which were divided by those in the DMSO-treated cells and averaged from three independent replicates of DNA microarray analysis, were shown as log2 values. (B) HeLa cells were treated with the indicated concentrations of i-CDK9 for 8 hr and the various proteins in the total cell lysates were detected by immunoblotting as indicated. Quantifications of the levels of MYC protein and Ser2-phosphoryalted Pol II (pSer2) in the lysates were shown above and below the immunoblots, respectively. […] The levels of the indicated proteins were examined by immunoblotting. (G) A HeLa-based cell line containing the stably transfected, doxycycline (Dox)-inducible MYC-F-expressing plasmid driven by the CMV promoter was pretreated with (+) or without (−) Dox prior to incubation with i-CDK9 or DMSO. MYC and MYC-F expressed from the endogenous MYC locus and the transfected plasmid, respectively, were detected by immunoblotting. DOI: http://dx.doi.org/10.7554/eLife.06535.007 Figure 3—figure supplement 1. Biphasic response of MYC mRNA production throughout the course of CDK9 inhibition by i-CDK9. DOI: http://dx.doi.org/10.7554/eLife.06535.008 [drawing 2] Figure 3—Figure supplement 2. […] DOI: http://dx.doi.org/10.7554/eLife.06535.009 [drawing 3] TEXT PRINTED IN THE PICTURE: (B) i-CDK9: Fold increase in MYC protein: 1.0 (i-CDK9 (μM): 0); Fold increase in MYC protein: 1.2 (i-CDK9 (μM): 0.01); Fold increase in MYC protein: 1.7 (i-CDK9 (μM): 0.03); Fold increase in MYC protein: 3.6 (i-CDK9 (μM): 0.1); Fold increase in MYC protein: 5.2 (i-CDK9 (μM): 0.3); Fold increase in MYC protein: 5.5 (i-CDK9 (μM): 1.0) | (C) i-CDK9: Fold increase in MYC protein: 1.0 (0.3 μM i-CDK9 (h): 0); Fold increase in MYC protein: 0.9 (0.3 μM i-CDK9 (h): 1); Fold increase in MYC protein: 1.1 (0.3 μM i-CDK9 (h): 2); Fold increase in MYC protein: 1.2 (0.3 μM i-CDK9 (h): 4); Fold increase in MYC protein: 3.3 (0.3 μM i-CDK9 (h): 8)
First, the induction of MYC protein level was confirmed in HeLa cells treated with i-CDK9. […] It took 1.0 µM i-CDK9 to cause up to 85% reduction in pSer2. In a separate time-course analysis, the 8-hr incubation with i-CDK9 (0.3 μM) induced the MYC level by 3.3-fold, whereas the same condition reduced the pSer2 level by only 40% (Figure 3C). Thus, MYC expression was highly responsive to i-CDK9 treatment and occurred at a time point earlier and drug concentration lower than those required to achieve a significant suppression of Ser2 phosphorylation on the Pol II CTD.

Chain of CDK8-CycC (P49336 whole entry): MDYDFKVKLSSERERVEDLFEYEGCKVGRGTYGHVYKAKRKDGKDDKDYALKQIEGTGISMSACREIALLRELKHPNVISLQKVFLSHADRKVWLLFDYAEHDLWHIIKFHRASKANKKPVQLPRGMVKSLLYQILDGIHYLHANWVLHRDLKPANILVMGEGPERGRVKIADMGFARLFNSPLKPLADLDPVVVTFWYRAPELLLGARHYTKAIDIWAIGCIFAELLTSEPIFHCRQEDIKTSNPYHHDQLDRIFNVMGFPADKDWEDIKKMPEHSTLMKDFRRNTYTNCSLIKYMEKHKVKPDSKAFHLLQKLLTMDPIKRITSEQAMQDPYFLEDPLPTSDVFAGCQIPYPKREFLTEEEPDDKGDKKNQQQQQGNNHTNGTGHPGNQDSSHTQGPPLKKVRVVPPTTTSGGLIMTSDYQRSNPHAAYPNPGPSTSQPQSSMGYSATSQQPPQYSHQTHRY
Chain of CDK8-CycC (P24863 whole entry partner): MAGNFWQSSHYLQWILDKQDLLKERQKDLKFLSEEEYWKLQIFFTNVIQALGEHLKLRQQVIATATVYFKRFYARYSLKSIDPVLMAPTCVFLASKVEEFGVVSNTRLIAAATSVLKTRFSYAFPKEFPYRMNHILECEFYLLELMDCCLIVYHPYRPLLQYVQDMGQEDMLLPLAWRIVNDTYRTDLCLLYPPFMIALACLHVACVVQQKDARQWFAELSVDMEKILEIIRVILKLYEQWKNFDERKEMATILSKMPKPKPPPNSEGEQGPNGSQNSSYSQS

Q: Which results are given for `N[C@H]1CC[C@H](Nc2cc(-c3cccc(NCc4cccc(F)c4)n3)c(Cl)cn2)CC1` [i-CDK9, N2′-(trans-4-aminocyclohexyl)-5′-chloro-N6-(3-fluorobenzyl)-2,4′-bipyridine-2′,6-diamine]?
A: IC50 (CDK8-CycC): > 1000 nM; Fold increase in MYC protein ([1]; 0.01 μM, 8 hr): 1.2 fold; Fold increase in MYC protein ([1]; 0.03 μM, 8 hr): 1.7 fold; Fold increase in MYC protein ([1]; 0.1 μM, 8 hr): 3.6 fold; Fold increase in MYC protein ([1]; 0.3 μM, 1 h (time course)): 0.9 fold; Fold increase in MYC protein ([1]; 0.3 μM, 2 h (time course)): 1.1 fold; Fold increase in MYC protein ([1]; 0.3 μM, 4 h (time course)): 1.2 fold; Fold increase in MYC protein ([1]; 0.3 μM, 8 h (time course)): 3.3 fold; Fold increase in MYC protein ([1]; 0.3 μM, 8 hr (dose series)): 5.2 fold; Fold increase in MYC protein ([1]; 1.0 μM, 8 hr): 5.5 fold; MYC induction ([1]; 2 μM added at time zero): No MYC induction
